# Values quoted from earlier work as cited in patent US7935730B2, “Method of enhancing reproductive function of mammals by feeding of conjugated linoleic acids” (Cornell Research Foundation, Inc., priority 2006, dated 2011).
# Columns and labels:
# [1] = in vivo
# young rodents = conditions: proposed
SMILES,effect on milk and body fat [1],feed efficiency and growth (young rodents)
"CCCCCC/C=C/C=C\CCCCCCCC(=O)O [cis-9, trans-11 CLA]",no effect,enhance
"CCCCC/C=C\C=C\CCCCCCCCC(=O)O [trans-10, cis-12 CLA]",reduction,–
